Here are results for 2 molecules from patent EP1481666A1, “A composition for re-establishment of the vaginal ecosystem” (ROTTAPHARM S.R.L., priority 2003, dated 2004).

Some results are limits rather than exact numbers.

The test deals with Lactobacillus acidophilus ATCC 314. In words: Test 1: comparison between nutrient substrates (use of substrate added to MRS broth base by Lactobacillus). The test is classed as cell-based, Lactobacillus acidophilus ATCC 314 (human origin). Conditions: for Lactic acid (%): HPLC; for Lactic acid (%) / D.O. / pH: 37°C, 24 hours; for D.O.: optical density of the culture; for growth and production of lactic acid: concentrations from 0.5 to 2.0%; for pH: starting pH 5.7±0.2. The source says: Since the Lactobacilli control the vaginal pH by means of the production of lactic acid it appeared to be useful to verify, both directly and indirectly, their capacity to utilise the various substrates proposed for the production of lactic acid and consequently their utility in the formulation of the composition.
• Lactobacillus acidophilus ATCC 314 (human origin) • Lactobacillus acidophilus wt (from vaginal swab)
• MRS broth (Lactobacillus broth according to De Man, Rogose) Merck • MRS broth base (without D(+)-glucose) • Series of MRS broth base media to which maltodextrins were added in percentages lying between 0.1 and 5% • Series of MRS broth base media to which glycogen was added in quantities lying between 0.5 and 2% • Series of MRS broth base media to which glucose was added in quantities lying between 0.1 and 2% • Series of MRS broth base media to which lactose was added in quantities lying between 0.5 and 2% Note: the pH of the media was always 5.7±0.2.
After having prepared fresh cultures of Lactobacilli in agar, an inoculation into five ml of MRS broth was incubated at 37°C for 24 hours. Aliquotes were prepared from 60 ml of the previously described media and in each of these were inoculated 600 µl of the culture in agar, with subsequent incubation at 37°C for 24 hours. As negative control aliquotes of 3 ml of the above-described media without inoculation of Lactobacilli were incubated. As positive control Merck MRS broth was utilised.
After 24 hours of incubation the optical density of the cultures was measured, the pH of the media was determined after centrifugation and filtration of the supernatant with a 0.45µ filter. The lactic acid present in the culture was also quantified by the HPLC method utilising as a control a laboratory standard of the same. These evaluation parameters have the following significance: • An increase in optical density confirms the growth of Lactobacilli; • Reduction in pH indicates the formation of lactic acid; • The quantitative determination of the lactic acid measures the efficiency of the use of the nutrient substrate by the Lactobacilli.

Where [1] appears, read: substrate 0.5 % in MRS broth base.
Setting [2] is: substrate 1.0 % in MRS broth base.
Where [3] appears, read: substrate 2.0 % in MRS broth base.
Setting [4] is: result in words, concentration of 0.1%.

As to `OC[C@H]1O[C@@H](O[C@H]2[C@H](O)[C@@H](O)C(O)O[C@@H]2CO)[C@H](O)[C@@H](O)[C@H]1O` (stereo partly shown) [LA, Lactose], the “Lactic acid (%)” value is, setting by setting: (substrate 0.5 %) below 0.10%; (substrate 1.0 %) below 0.10%; (substrate 2.0 %) below 0.10%. Further, the D.O. (substrate 0.5 %) is reported as 0.218, the D.O. (substrate 1.0 %) is 0.221 and the D.O. (substrate 2.0 %) was found to be 0.179. Besides, the “growth and production of lactic acid” value (result in words) is listed as “rather poor”. The pH reads like this: under setting [1], 5.88; under setting [2], 5.91; under setting [3], 5.94.
For `OC[C@H]1OC(O)[C@H](O)[C@@H](O)[C@@H]1O` (stereo partly shown) [GLU, Glucose], the “Lactic acid (%)” value runs as follows: (substrate 0.1 %) 0.17%; (substrate 0.5 %) 0.90%; (substrate 1.0 %) 1.80%; (substrate 2.0 %) 2.43%. Also, the D.O. amounted to 0.665 (substrate 0.1 %), 1.540 (substrate 0.5 %), 2.593 (substrate 1.0 %) and 2.540 (substrate 2.0 %). The “utilised for the growth of Lactobacillus” value under setting [4] is listed as “significant”. For the same molecule, the “utilised for the production of lactic acid” value under setting [4] is “hardly utilised”. For the setting “result in words”, the “growth and production of lactic acid” value is “utilised in a useful and dose-dependent manner”. Moreover, the pH is listed as 5.56 (substrate 0.1 % in MRS broth base), 4.74 under setting [1], 4.33 under setting [2] and 4.57 under setting [3].
